{"source": "paper PMC6379368", "about": "“Extracellular and intracellular small-molecule galectin-3 inhibitors” (Scientific Reports, 2019)", "key": {"galectin-3": {"target": "galectin-3 (Homo sapiens, UniProt P17931)", "sequence (P17931 whole entry)": "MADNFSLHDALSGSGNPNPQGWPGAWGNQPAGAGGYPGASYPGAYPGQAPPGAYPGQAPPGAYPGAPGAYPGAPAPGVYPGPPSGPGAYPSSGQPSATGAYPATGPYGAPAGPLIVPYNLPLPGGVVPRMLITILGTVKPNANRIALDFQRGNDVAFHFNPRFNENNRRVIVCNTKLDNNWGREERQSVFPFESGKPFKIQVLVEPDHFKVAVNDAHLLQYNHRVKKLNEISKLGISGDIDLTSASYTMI", "test": "GPN-induced galectin-3 accumulation (puncta) in JIMT-1 breast cancer cells", "assay_type": "cell-based", "parameters": "In the intracellular assay, in contrast, only endogenous galectin was present; endogenous in cells; host or cells: JIMT-1 breast cancer cells", "description": "The total number of galectin-3 puncta and nuclei in the microscopy images were quantified using the software ImageJ.\nCells were seeded in multi-well plates with sterile glass coverslips placed in each well and allowed to adhere to the cell culture surface for at least 24 hours. Then the cells were pre-treated with the different galectin-3 inhibitors at different concentrations (or DMSO as control) for 15 minutes or 24 hours followed by addition of the lysosomal damaging peptide GPN[42] and incubated another 13 minutes, with the inhibitors still present. The 13-minute incubation with GPN and 15-minute pre-incubation with inhibitors were done in DMEM/Ham’s F12 medium with 15 mM HEPES buffer (without serum), whereas the 24-hour incubation with inhibitors were performed in fully supplemented DMEM/Ham’s F12 medium (as described under Cell culture).\nAfter treatment with GPN, the cells were fixed in 3.7% (v/v) formaldehyde in phosphate-buffered saline (PBS) for 15 minutes, permeabilized and blocked using 1% (v/v) TWEEN 20 and 5% (w/v) BSA in PBS for 30 minutes, then incubated with primary and secondary antibodies for one hour each (washed with PBS in between). Primary and secondary antibodies for galectin-3 staining were a rat anti-mouse galectin-3 IgG antibody[50],[51] […] All antibodies were diluted in 0.05% TWEEN 20 and 5% BSA in PBS. […] The coverslips were mounted on glass slides using Mowiol® 4–88 and left at 8 °C overnight before further examination. For imaging of the cells, a LSM-510 confocal laser scanning microscope (Carl Zeiss Microscopy GmbH, Oberkochen, Germany), equipped with a Hamamatsu R6357 photomultiplier (Hamamatsu Photonics K.K., Hamamatsu, Japan), was used. […] Maximum intensity projections of each picture obtained were analyzed with ImageJ 1.47 v (Rasband, W.S., ImageJ, U. S. National Institutes of Health, Bethesda, Maryland, USA) to quantify the number of galectin-3 dots and the number of nuclei in each picture. The quantification of particles (i.e. galectin-3 puncta/nucleus) was carried out using batch processing in the software, where a single macro (including parameters such as image thresholds, particle size and circularity) was used for all images obtained from a single experiment, this to reduce user bias and time consumption."}, "MIA PaCa-2 cells": {"system": "MIA PaCa-2 cells", "test": "MTT assay, MIA PaCa-2 pancreatic cancer cells", "assay_type": "cell-based", "conditions": "MIA PaCa-2, 72 hours", "description": "(§1) The MTT (3-[4,5-dimethylthiazol-2-yl]−2,5-diphenyltetrazolium bromide) assays were performed as previously described. In brief, cells were seeded in 96-well plates (6000 cells/well for MCF-7 and HCC1937 and 5000 cells for JIMT-1 in 180 μl fully-supplemented medium as described under Cell culture). The cells were incubated for 24 hours before addition of galectin-3 inhibitors. The inhibitors were diluted in PBS from their respective stock solution in DMSO (see Galectin-3 inhibitors) and used at final concentrations ranging from 0.04 to 40 μM. DMSO was adjusted to make the final DMSO concentration 0.2% for all inhibitor concentrations, including the control sample (no inhibitor). After 72 hours of treatment, 20 μl of 5 mg/ml MTT solution (in PBS) was added to each well and incubation continued for 1 hour at 37 °C. […] Absorbance was monitored at 540 nm using a Labsystems iEMS Reader MF (Labsystems Oy, Helsinki, Finland) and the software DeltaSoft II v.4.14 (Biometallics Inc., Princeton, NJ, USA). […]\n(§2) Fluorescence anisotropy assay\n(§3) The affinity between inhibitor 1 and the carbohydrate recognition domain (CRD) of galectin-8C and between inhibitor 3 and the CRD of galectin-2, -4N, -4C, 8C, and -9C was determined using the fluorescence anisotropy assay described in the main article. […]"}, "[1]": {"system": "pathological corneal neovascularization and fibrosis", "parameters": "method as in PMID 27356186, PMID 28055102", "conditions": "cited from earlier work"}, "BxPc-3 cells": {"system": "BxPc-3 cells", "test": "MTT assay, BxPc-3 pancreatic cancer cells", "assay_type": "cell-based", "conditions": "BxPc-3, 72 hours", "description": "as §1, §2, §3"}}}
{"compound": "OC[C@H]1O[C@@H](S[C@@H]2O[C@H](CO)[C@H](O)[C@H](n3cc(-c4cccc(F)c4)nn3)[C@H]2O)[C@H](O)[C@@H](n2cc(-c3cccc(F)c3)nn2)[C@H]1O", "note": "[compound 1]", "values": [{"measurement": "inhibition of galectin-3 accumulation (extent)", "setting": "galectin-3; 15 minutes pre-treatment, high concentrations 50–100 µM", "result": "complete inhibition of galectin-3 accumulation could not be reached"}, {"measurement": "inhibition of galectin-3 accumulation (extent)", "setting": "galectin-3; 24 hours pre-treatment, around 1–5 µM", "result": "nearly complete inhibition"}, {"measurement": "toxicity (MTT)", "setting": "MIA PaCa-2 cells", "result": "low toxicity"}, {"measurement": "effect in pathological corneal neovascularization and fibrosis", "setting": "[1]", "result": "therapeutic effects"}, {"measurement": "toxicity (MTT)", "setting": "BxPc-3 cells", "result": "low toxicity"}]}
